Key:
[1] = Toxicity in Swiss albino mouse assessed as SGOT level in serum at 50 mg/kg, po administered as single dose (reference value: 22.12 +/-1.91 U/L); format: organism-based; details: in vivo
MCF7 [2] = assay: Antiproliferative activity against human MCF-7 cells assessed as proportion of live cells at 12.5 ug/ml measured after 3 weeks by crystal violet staining based soft agar colony formation assay (reference value: 100%); format: functional; details: dose 12.5 µg/ml
[3] = Toxicity in Swiss albino mouse assessed as haemoglobin level in blood at 5 mg/kg, po administered as single dose (reference value: 12.05 +/-0.88 gm/dl); format: organism-based; details: in vivo
[4] = Toxicity in Swiss albino mouse assessed as serum protein level at 50 mg/kg, po administered as single dose (reference value: 2.83 +/-0.09 mg/ml); format: organism-based; details: in vivo
[5] = Toxicity in Swiss albino mouse assessed as cholesterol level in serum at 5 mg/kg, po administered as single dose (reference value: 103.62 +/-7.45 mg/dl); format: organism-based; details: in vivo
[6] = Toxicity in Swiss albino mouse assessed as body weight at 300 mg/kg, po administered as single dose (reference value: 31.62 +/- 1.64 gms); format: organism-based; details: in vivo
[7] = target: DNA topoisomerase 2-alpha (Homo sapiens) (UniProt P11388); assay: Inhibition of DNA-topoisomerase 2 in human MCF7 cells using kinetoplast DNA as substrate measured by ELISA; format: cell-based; details: dose 4.33-17.32 µM
Sequence of DNA topoisomerase 2-alpha (Homo sapiens) (P11388 whole entry): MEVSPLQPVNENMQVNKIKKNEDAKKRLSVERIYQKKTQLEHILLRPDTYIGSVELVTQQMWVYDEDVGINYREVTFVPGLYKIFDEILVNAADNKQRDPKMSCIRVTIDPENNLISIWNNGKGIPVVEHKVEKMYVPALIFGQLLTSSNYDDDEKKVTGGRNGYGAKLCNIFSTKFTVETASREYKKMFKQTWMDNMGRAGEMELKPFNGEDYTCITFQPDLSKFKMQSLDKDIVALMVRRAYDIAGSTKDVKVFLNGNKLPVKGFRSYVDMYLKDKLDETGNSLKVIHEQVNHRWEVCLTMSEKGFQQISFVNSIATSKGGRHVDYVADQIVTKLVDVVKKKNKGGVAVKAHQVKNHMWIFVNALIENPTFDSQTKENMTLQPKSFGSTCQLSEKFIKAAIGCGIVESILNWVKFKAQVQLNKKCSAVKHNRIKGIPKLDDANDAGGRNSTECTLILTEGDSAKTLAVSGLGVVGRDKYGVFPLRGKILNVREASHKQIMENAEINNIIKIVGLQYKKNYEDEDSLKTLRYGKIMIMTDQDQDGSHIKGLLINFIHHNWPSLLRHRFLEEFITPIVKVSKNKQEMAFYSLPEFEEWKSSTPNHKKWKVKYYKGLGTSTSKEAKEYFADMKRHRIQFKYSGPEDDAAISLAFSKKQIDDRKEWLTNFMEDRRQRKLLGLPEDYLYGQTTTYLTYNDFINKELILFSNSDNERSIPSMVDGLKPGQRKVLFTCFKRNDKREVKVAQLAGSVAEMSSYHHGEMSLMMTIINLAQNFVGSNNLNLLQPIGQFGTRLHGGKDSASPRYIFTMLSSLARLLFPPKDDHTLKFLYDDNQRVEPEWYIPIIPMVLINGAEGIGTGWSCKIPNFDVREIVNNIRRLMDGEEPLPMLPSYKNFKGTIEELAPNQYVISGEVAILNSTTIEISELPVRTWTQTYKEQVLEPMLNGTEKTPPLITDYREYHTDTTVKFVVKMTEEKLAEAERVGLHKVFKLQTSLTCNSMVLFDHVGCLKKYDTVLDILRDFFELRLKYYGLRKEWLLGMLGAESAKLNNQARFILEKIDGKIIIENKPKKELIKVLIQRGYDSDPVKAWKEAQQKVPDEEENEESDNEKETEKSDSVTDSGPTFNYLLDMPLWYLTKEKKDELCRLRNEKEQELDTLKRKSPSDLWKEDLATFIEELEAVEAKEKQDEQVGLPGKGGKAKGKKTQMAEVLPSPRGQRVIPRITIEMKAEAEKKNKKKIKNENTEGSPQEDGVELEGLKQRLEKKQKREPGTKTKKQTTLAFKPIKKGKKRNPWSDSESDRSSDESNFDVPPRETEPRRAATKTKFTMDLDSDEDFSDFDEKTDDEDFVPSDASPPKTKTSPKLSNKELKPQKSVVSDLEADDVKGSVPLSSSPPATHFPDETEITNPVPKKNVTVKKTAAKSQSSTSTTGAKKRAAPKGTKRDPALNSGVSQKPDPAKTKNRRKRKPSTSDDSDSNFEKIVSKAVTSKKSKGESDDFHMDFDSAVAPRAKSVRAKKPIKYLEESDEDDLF

MCF7 [8] = assay: Induction of cell cycle arrest in human MCF-7 cells assessed as accumulation at G0/G1 phase at 4.33 uM by propidium iodide staining based flow cytometry (reference value: 74.5%); format: functional
MDA-MB-231 [9] = assay: Induction of apoptosis in human MDA-MB-231 cells at 10.42 uM by propidium iodide staining based flow cytometry (reference value: 2.6 +/- 0.28%); format: functional
[10] = Toxicity in Swiss albino mouse assessed as RBC level in blood at 5 mg/kg, po administered as single dose (reference value: 10.56 +/- 1.22x10^6/mm3); format: organism-based; details: in vivo
MCF7 [11] = assay: Induction of apoptosis in human MCF-7 cells assessed as proportion of necrotic cells at 8.66 uM measured after 24 hrs by Annexin V- FITC/propidium iodide staining based flow cytometry (reference value: 5.3%); format: functional
MDA-MB-231 [12] = assay: Induction of cell cycle arrest in human MDA-MB-231 cells assessed as accumulation at S phase at 5.21 uM by propidium iodide staining based flow cytometry (reference value: 11.35 +/- 0.07%); format: functional
MDA-MB-231 [13] = assay: Induction of cell cycle arrest in human MDA-MB-231 cells assessed as accumulation at G0/G1 phase at 10.42 uM by propidium iodide staining based flow cytometry (reference value: 77.7 +/- 0.28%); format: functional
[14] = Toxicity in Swiss albino mouse assessed as haemoglobin level in blood at 300 mg/kg, po administered as single dose (reference value: 12.05 +/-0.88 gm/dl); format: organism-based; details: in vivo
[15] = Toxicity in Swiss albino mouse assessed as creatinine level in serum at 300 mg/kg, po administered as single dose (reference value: 0.27+/-0.02 mg/dl); format: organism-based; details: in vivo
MCF7 [16] = assay: Induction of cell cycle arrest in human MCF-7 cells assessed as accumulation at S phase at 8.66 uM by propidium iodide staining based flow cytometry (reference value: 6.9%); format: functional
MDA-MB-231 [17] = assay: Induction of cell cycle arrest in human MDA-MB-231 cells assessed as accumulation at S phase at 2.6 uM by propidium iodide staining based flow cytometry (reference value: 11.35 +/- 0.07%); format: functional
MDA-MB-231 [18] = assay: Induction of apoptosis in human MDA-MB-231 cells assessed as proportion of late apoptotic cells at 5.21 uM measured after 24 hrs by Annexin V-FITC/propidium iodide staining based flow cytometry (reference value: 0.5%); format: functional
[19] = Toxicity in Swiss albino mouse assessed as triglyceride level in serum at 300 mg/kg, po administered as single dose (reference value: 78.34 +/-2.99 mg/dl); format: organism-based; details: in vivo
MCF7 [20] = assay: Antiproliferative activity against human MCF-7 cells assessed as proportion of live cells at 6.25 ug/ml measured after 3 weeks by crystal violet staining based soft agar colony formation assay (reference value: 100%); format: functional; details: dose 6.25 µg/ml
MCF7 [21] = assay: Induction of apoptosis in human MCF-7 cells assessed as proportion of late apoptotic cells at 2.17 uM measured after 24 hrs by Annexin V- FITC/propidium iodide staining based flow cytometry (reference value: 0.1%); format: functional
MDA-MB-231 [22] = assay: Induction of apoptosis in human MDA-MB-231 cells assessed as proportion of early apoptotic cells at 5.21 uM measured after 24 hrs by Annexin V-FITC/propidium iodide staining based flow cytometry (reference value: 0.2%); format: functional
[23] = Toxicity in Swiss albino mouse assessed as absolute and relative spleen weight at 5 to 300 mg/kg, po administered as single dose; format: organism-based; details: in vivo, dose 5-300 mg/kg
MCF7 [24] = assay: Induction of apoptosis in human MCF-7 cells assessed as proportion of early apoptotic cells at 8.66 uM measured after 24 hrs by Annexin V- FITC/propidium iodide staining based flow cytometry (reference value: 0%); format: functional
[25] = Toxicity in Swiss albino mouse assessed as WBC level in blood at 50 mg/kg, po administered as single dose (reference value: 17.06 +/- 1.33x10^3/mm3); format: organism-based; details: in vivo
[26] = Toxicity in Swiss albino mouse assessed as albumin level in serum at 300 mg/kg, po administered as single dose (reference value: 0.56 +/-0.02 g/dl); format: organism-based; details: in vivo
MCF7 [27] = assay: Induction of apoptosis in human MCF-7 cells assessed as proportion of viable cells at 8.66 uM measured after 24 hrs by Annexin V- FITC/propidium iodide staining based flow cytometry (reference value: 94.6%); format: functional
[28] = Toxicity in Swiss albino mouse assessed as serum protein level at 300 mg/kg, po administered as single dose (reference value: 2.83 +/-0.09 mg/ml); format: organism-based; details: in vivo
[29] = Toxicity in Swiss albino mouse assessed as ALP level in serum at 50 mg/kg, po administered as single dose (reference value: 195.8 +/-12.06 U/L); format: organism-based; details: in vivo
[30] = Toxicity in Swiss albino mouse assessed as RBC level in blood at 300 mg/kg, po administered as single dose (reference value: 10.56 +/- 1.22x10^6/mm3); format: organism-based; details: in vivo
[31] = Toxicity in Swiss albino mouse assessed as triglyceride level in serum at 50 mg/kg, po administered as single dose (reference value: 78.34 +/-2.99 mg/dl); format: organism-based; details: in vivo
[32] = Toxicity in po dosed Swiss albino mouse administered as single dose; format: organism-based; details: in vivo
[33] = Toxicity in Swiss albino mouse assessed as absolute and relative lung weight at 5 to 300 mg/kg, po administered as single dose; format: organism-based; details: in vivo, dose 5-300 mg/kg
[34] = Toxicity in Swiss albino mouse assessed as haemoglobin level in blood at 50 mg/kg, po administered as single dose (reference value: 12.05 +/-0.88 gm/dl); format: organism-based; details: in vivo

`COc1ccc(C(c2ccccc2OCCN2CCCC2)c2cccc3ccccc23)c(OC)c1OC` (centres undefined) gave an Activity [1] of 25.42 U/L, an Activity (MCF7 [2]) of 47.2% and an Activity [3] of 11.35 g/dL. The Activity [4] was 2.52 mg/mL, the Activity [5] was 111.17 mg/dL and the Activity [6] was 31.03 g. The inhibition [7] was “Dose-dependent effect”, the Activity (MCF7 [8]) was 67.4% and the Activity (MDA-MB-231 [9]) was 16.7%. The Activity [10] was 13.06 million/mm3, the Activity (MCF7 [11]) was 12.1% and the Activity (MDA-MB-231 [12]) was 7.9%. For the same molecule, the Activity (MDA-MB-231 [13]) was 56.9%, the Activity [14] was 10.13 g/dL and the Activity [15] was 0.2 mg/dL. It also gave an Activity (MCF7 [16]) of 9.2%, an Activity (MDA-MB-231 [17]) of 6.75% and an Activity (MDA-MB-231 [18]) of 3.5%. It also gave an Activity [19] of 106.09 mg/dL, an Activity (MCF7 [20]) of 70.77% and an Activity (MCF7 [21]) of 16.5%. The Activity (MDA-MB-231 [22]) was 0.4%, the Activity [23] was “Non-Toxic” and the Activity (MCF7 [24]) was 0%. For the same molecule, the Activity [25] was 13.46 10^3/mm3, the Activity [26] was 0.54 g/dL and the Activity (MCF7 [27]) was 61.8%. It also gave an Activity [28] of 2.87 mg/mL, an Activity [29] of 182.4 U/L and an Activity [30] of 11.64 million/mm3. The Activity [31] was 94.42 mg/dL, the MTD [32] was no more than 300 mg/kg and the Activity [33] was “Non-Toxic”. It also gave an Activity [34] of 9.96 g/dL.
